pIC50: −log10 of the molar value. Structures can show the parent of a compound that is named as a salt.
Each molecule was assayed against T1, human GIRK1/4 channels (Homo sapiens, UniProt P48544+P48549) (assay: Measurement of human GIRK1/4 channel current by whole-cell patch clamp method (human GIRK1/4-expressing CHO cell line)). Conditions: not given.
T1 construct: Full-length human GIRK1 cDNA was cloned from HuH cell- and HeLa cell-derived cDNA libraries; Full-length GIRK4 cDNA was amplified from a human heart cDNA library; expressed in transfected cells; host or cells: FLP-IN-CHO cells (Invitrogen)
T1 sequence (P48549 1-501): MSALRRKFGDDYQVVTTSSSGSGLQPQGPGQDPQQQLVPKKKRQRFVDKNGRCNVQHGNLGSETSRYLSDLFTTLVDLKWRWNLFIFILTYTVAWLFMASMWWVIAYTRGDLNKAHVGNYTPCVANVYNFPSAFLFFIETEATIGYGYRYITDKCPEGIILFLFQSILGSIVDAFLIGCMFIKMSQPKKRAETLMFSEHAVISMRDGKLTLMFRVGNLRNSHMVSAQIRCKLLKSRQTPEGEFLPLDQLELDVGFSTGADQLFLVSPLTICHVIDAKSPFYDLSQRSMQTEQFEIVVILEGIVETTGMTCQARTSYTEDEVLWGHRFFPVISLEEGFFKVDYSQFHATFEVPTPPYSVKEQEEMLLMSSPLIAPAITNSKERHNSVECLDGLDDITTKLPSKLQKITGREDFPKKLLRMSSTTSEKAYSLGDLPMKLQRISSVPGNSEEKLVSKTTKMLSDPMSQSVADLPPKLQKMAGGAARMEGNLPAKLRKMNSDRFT
T1 sequence (P48544 1-419): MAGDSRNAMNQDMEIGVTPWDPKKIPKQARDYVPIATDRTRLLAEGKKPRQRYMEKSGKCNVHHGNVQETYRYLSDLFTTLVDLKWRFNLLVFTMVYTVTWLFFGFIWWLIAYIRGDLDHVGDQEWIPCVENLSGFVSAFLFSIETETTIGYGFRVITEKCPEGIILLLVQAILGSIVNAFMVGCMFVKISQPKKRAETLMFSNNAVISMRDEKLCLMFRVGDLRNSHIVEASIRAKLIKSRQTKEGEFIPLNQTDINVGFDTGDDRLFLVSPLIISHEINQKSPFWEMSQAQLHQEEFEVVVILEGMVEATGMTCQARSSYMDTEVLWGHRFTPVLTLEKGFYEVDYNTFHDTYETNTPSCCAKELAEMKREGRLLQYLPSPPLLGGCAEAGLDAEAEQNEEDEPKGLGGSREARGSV
Type: cell-based
Protocol: (2) Production of CHO Cell Line Expressing Human GIRK1/4
CHO cell lines stably expressing human GIRK1/4 channels were prepared in the following manner.
Full-length human GIRK1 cDNA was cloned from HuH cell- and HeLa cell-derived cDNA libraries. Full-length GIRK4 cDNA was amplified from a human heart cDNA library (produced by Clontech Laboratories, Inc.) by PCR using synthetic primers shown in Table 1, and cloned into the Eco-RI restriction enzyme site of pCR-Blunt (produced by Invitrogen Corporation) or into the HincII site of pUC118 (produced by Takara Bio, Inc.).
The obtained human GIRK1 and GIRK4 cDNA sequences correspond to known sequences (NCBI database: GIRK1 (NM_002239) and GIRK4 (NM_000890) respectively). The obtained GIRK1 and GIRK4 cDNA sequences were cloned into the Eco-RI restriction enzyme site of pCR-Blunt (available from Invitrogen Corporation) or into the HincII site of pUC118 (available from Takara Bio, Inc.). A GIRK4 expression vector was constructed by insertion into the BamHI-XhoI site of pcDNA5/FRT. A GIRK1 expression vector was constructed by insertion into the KpnI-XhoI site of pcDNA3.1(+) or pCAG_neo. FLP-IN-CHO cells (produced by Invitrogen Corporation) were transfected with human GIRK1 and GIRK4 expression vectors by using Lipofectamine 2000 (produced by Invitrogen Corporation) according to the protocol enclosed with the reagent or using an electronic induction method (“Nucleofector Kit-T”, produced by Amaxa). First, the cells transfected with the GIRK4 expression vector were cultured in a 10% serum-containing F12 medium (produced by Sigma) supplemented with 600 μg/ml of hygromycin in an incubator with 5% carbon dioxide at 37° C. Then the cells expressing GIRK4 were transfected with the GIRK1 expression vector and were cultured in 10% serum-containing F12 medium supplemented with 350 μg/ml of G418 and 600 μg/ml of hygromycin in an incubator with 5% carbon dioxide at 37° C. to select GIRK1/4 expressing cell lines. Cell populations whose growth was observed after about 2 weeks were isolated using cloning rings, and the obtained single colonies were proliferated. RNA was extracted from single colonies, and single-stranded cDNA was synthesized by a cDNA synthesis kit (produced by Invitrogen Corporation), and the amount of expression was quantified at the mRNA level by real-time PCR (Applied Biosystems, Ltd.). Finally, the expressed current was analyzed by patch clamp method described below. The cell lines expressing a current of 500 pA or more per cell were selected as channel-expressing cell lines for activity measurement by patch clamping method.
(4) Measurement of Ion Channel Current by Patch Clamp Method (Human GIRK1/4-Expressing CHO-K1 Cell Line)
An experiment was carried out using a patch clamp setup at room temperature (20 to 26° C.). A perfusion chamber having a diameter of 20 mm (flow rate: about 5 ml/min) was mounted on the stage of a phase-contrast inverted microscope (produced by Nikon Corporation) placed on a vibration isolation table. A poly-L-lysine (produced by Sigma)-coated coverslip (diameter: 15 mm, produced by Matsunami Glass Ind., Ltd.) on which human GIRK1/4-expressing cells were cultured was placed in the perfusion chamber.
Hyperpolarizing stimulation pulses were applied and ionic current was recorded using a patch clamp amplifier (EPC-7 or EPC-7 PLUS, manufactured by HEKA) and a personal computer (manufactured by IBM Corp.) in which software for data acquisition and analysis of ion channel current (PULSE 8.77, manufactured by HEKA) was installed. The current was measured in the whole-cell configuration of the patch-clamp technique. The tip (resistance: 2 to 4 MΩ) of a borosilicate glass pipette (produced by Sutter Instrument Co.) was gently placed on the cell membrane by using a three-dimensional mechanical micromanipulator (produced by Shoshin EM Corporation). […] Subsequently, stronger suction was applied to break the cell membrane. […]
`CCN1C(=O)C(C)(C)C(=O)N(C)c2cc(OCCCN(CCn3ccc4ccccc4c3=O)Cc3ccsc3)ccc21` [Example 125] gave a pIC50 of 7.04.

Same assay, conditions: whole-cell patch clamp, human GIRK1/4-expressing CHO cells; step end current at −120 mV; test compound 0.1, 1, 10 μM; read-out: GIRK¼ IC50
Molecule `CCN1C(=O)C(C)(C)C(=O)N(C)c2cc(OCCCN(CCn3ccc4ccsc4c3=O)Cc3ccncc3)ccc21` [Example 68, 1-ethyl-3,3,5-trimethyl-7-(3-{[2-(7-oxo-7H-thieno[2,3-c]pyridin-6-yl)ethyl]pyridin-4-ylmethylamino}propoxy)-1,5-dihydrobenzo[b][1,4]diazepine-2,4-dione] has a pIC50 of 5.29. `CCN1C(=O)C(C)(C)C(=O)N(C)c2cc(OCCCN(CCn3ccc4ccccc4c3=O)Cc3ccc(C#N)cc3)ccc21` [Example 85] was tested, and the pIC50 was 6.82. With `CCN1C(=O)C(C)(C)C(=O)N(C)c2cc(OCCCN(CCn3ccc4ccccc4c3=O)Cc3ccco3)ccc21` [Example 132] the pIC50 was 6.57. `CCN1C(=O)C(C)(C)C(=O)N(C)c2cc(OCCCN(CCc3cccnc3)Cc3ccccc3)ccc21` [Example 200] showed a pIC50 of 6.23. `CCN1C(=O)C(C)(C)C(=O)N(C)c2cc(OCCCN(CCc3cccnc3)Cc3cccc(C#N)c3)ccc21` [Example 229] was tested, and the pIC50 was 6.16. In the case of `CCN1C(=O)C(C)(C)C(=O)N(C)c2cc(OCCCN(CCc3cccnc3)Cc3ccccc3-c3cccnc3)ccc21` [Example 242], the pIC50 was 6.66. Work on `CCN1C(=O)C(C)(C)C(=O)N(C)c2cc(OCCCN(CCn3ccc4ccoc4c3=O)Cc3ccc(C#N)cc3)ccc21` [Example 380] yielded a pIC50 of 6.31. `CCN1C(=O)C(C)(C)C(=O)N(C)c2cc(OCCCN(CCn3ccc4ccoc4c3=O)Cc3ccc(C(F)(F)F)cc3)ccc21` [Example 395] was tested, and the pIC50 was 6.48. Work on `CCN1C(=O)C(C)(C)C(=O)N(C)c2cc(OCCCN(CCn3ccc4ccoc4c3=O)Cc3ccccc3C)ccc21` [Example 398] yielded a pIC50 of 6.31. Molecule `CCN1C(=O)C(C)(C)C(=O)N(C)c2cc(OCCCN(CCn3ccc4ccoc4c3=O)Cc3cccs3)ccc21` [Example 417] has a pIC50 of 6.01. `CCN1C(=O)C(C)(C)C(=O)N(C)c2cc(OCCCN(CCn3ccc4oc(C)cc4c3=O)Cc3ccncc3)ccc21` [Example 464, 1-ethyl-3,3,5-trimethyl-7-(3-{[2-(2-methyl-4-oxo-4H-furo[3,2-c]pyridin-5-yl)ethyl]pyridin-4-ylmethylamino}propoxy)-1,5-dihydrobenzo[b][1,4]diazepine-2,4-dione dihydrochloride] was tested, and the pIC50 was 5.49. `CCN1C(=O)C(C)(C)C(=O)N(C)c2cc(OCCCN(CCn3ccc4occc4c3=O)Cc3cccnc3)ccc21` [Example 551, 1-ethyl-3,3,5-trimethyl-7-(3-{[2-(4-oxo-4H-furo[3,2-c]pyridin-5-yl)ethyl]pyridin-3-ylmethylamino}-propoxy)-1,5-dihydrobenzo[b][1,4]diazepine-2,4-dione] showed a pIC50 of 5.28. `CCN1C(=O)C(C)(C)C(=O)N(C)c2cc(OCCCN(CCn3ccc4sccc4c3=O)Cc3cccnc3)ccc21` [Example 568, 1-ethyl-3,3,5-trimethyl-7-(3-{[2-(4-oxo-4H-thieno[3,2-c]pyridin-5-yl)ethyl]pyridin-3-ylmethylamino}-propoxy)-1,5-dihydrobenzo[b][1,4]diazepine-2,4-dione] showed a pIC50 of 7.30. Work on `CCN1C(=O)C(C)(C)C(=O)N(C)c2cc(OCCCN(CCn3ccc4oc(C)cc4c3=O)Cc3cnccc3C)ccc21` [Example 573, 1-ethyl-3,3,5-trimethyl-7-{3-[[2-(2-methyl-4-oxo-4H-furo[3,2-c]pyridin-5-yl)ethyl]-(4-methylpyridin-3-ylmethyl)amino]propoxy}-1,5-dihydrobenzo[b][1,4]diazepine-2,4-dione] yielded a pIC50 of 5.82. For `CCN1C(=O)C(C)(C)C(=O)N(C)c2cc(OCCCN(CCn3ccc4occc4c3=O)Cc3cccnc3C)ccc21` [Example 575, 1-ethyl-3,3,5-trimethyl-7-(3-{(2-methylpyridin-3-ylmethyl)-[2-(4-oxo-4H-furo[3,2-c]pyridin-5-yl)ethyl]-amino}propoxy)-1,5-dihydrobenzo[b][1,4]diazepine-2,4-dione], the pIC50 was 6.30. `CCN1C(=O)C(C)(C)C(=O)N(C)c2cc(OCCCN(CCn3ccc4occc4c3=O)Cc3cnccc3C)ccc21` [Example 590, 1-ethyl-3,3,5-trimethyl-7-(3-{(4-methylpyridin-3-ylmethyl)-[2-(4-oxo-4H-furo[3,2-c]pyridin-5-yl)ethyl]-amino}propoxy)-1,5-dihydrobenzo[b][1,4]diazepine-2,4-dione] was tested, and the pIC50 was 5.62. In the case of `CCN1C(=O)C(C)(C)C(=O)N(C)c2cc(OCCCN(CCn3ccc4sccc4c3=O)Cc3cccnc3C)ccc21` [Example 595, 1-ethyl-3,3,5-trimethyl-7-(3-{(2-methylpyridin-3-ylmethyl)-[2-(4-oxo-4H-thieno[3,2-c]pyridin-5-yl)ethyl]-amino}propoxy)-1,5-dihydrobenzo[b][1,4]diazepine-2,4-dione], the pIC50 was 6.10. With `CCCc1ncccc1CN(CCCOc1ccc2c(c1)N(C)C(=O)C(C)(C)C(=O)N2CC)CCn1ccc2oc(C)cc2c1=O` [Example 611, 1-ethyl-3,3,5-trimethyl-7-{3-[[2-(2-methyl-4-oxo-4H-furo[3,2-c]pyridin-5-yl)ethyl]-(2-propylpyridin-3-ylmethyl)amino]propoxy}-1,5-dihydrobenzo[b][1,4]diazepine-2,4-dione dihydrochloride] the pIC50 was 6.43. `CCN1C(=O)C(C)(C)C(=O)N(C)c2cc(OCCCN(CCc3cccnc3)S(=O)(=O)c3ccccc3)ccc21` [Example 628, N-[3-(1-ethyl-3,3,5-trimethyl-2,4-dioxo-2,3,4,5-tetrahydro-1H-benzo[b][1,4]diazepin-7-yloxy)propyl]-N-(2-pyridin-3-ylethyl)benzenesulfonamide hydrochloride] showed a pIC50 of 5.60. Molecule `CCN1C(=O)C(C)(C)C(=O)N(C)c2cc(OCCCN(CCn3ccc4occc4c3=O)Cc3ccc(C)nc3C)ccc21` [Example 629, 7-(3-{(2,6-dimethylpyridin-3-ylmethyl)-[2-(4-oxo-4H-furo[3,2-c]pyridin-5-yl)ethyl]amino}propoxy)-1-ethyl-3,3,5-trimethyl-1,5-dihydrobenzo[b][1,4]diazepine-2,4-dione dihydrochloride] has a pIC50 of 6.77.
